# Legend:
# [1] = tPA enzyme activity after PPACK inactivation, paranitroanilide-substrate method; format: biochemical; details: S.E., n=3
# Experimental: Reconstituted tPA was incubated with a fivefold molar excess of PPACK in 0.2 M L-arginine in 0.05M phosphate buffer, pH 7.2, with 0.01% Tween 20 for 1 hour at room temperature, followed by dialysis against reaction buffer to remove unreacted PPACK. A control preparation was carried through the procedure without PPACK and all procedures involving PPACK were protected from light. Enzyme activity in PPACK-treated and control tPA preparations was measured with a […] paranitroanilide-substrate method (Ranby and Wallen, 1981).
# [2] = biological target: T1, fibrin (Homo sapiens, UniProt P02671+P02675+P02679); assay: Two-stage fibrin pad ELISA, Scatchard and van't Hoff analysis; details: undiluted fresh-frozen rabbit serum, 37° C.; read-out: binding affinity (KD) in serum
# T1 construct: were incubated on replicate fibrin pads, prepared in microplate wells; purchased Calbiochem (EMD Biosciences, Inc., La Jolla, Calif.)
# T1 sequence (P02671 36-629 limits assumed): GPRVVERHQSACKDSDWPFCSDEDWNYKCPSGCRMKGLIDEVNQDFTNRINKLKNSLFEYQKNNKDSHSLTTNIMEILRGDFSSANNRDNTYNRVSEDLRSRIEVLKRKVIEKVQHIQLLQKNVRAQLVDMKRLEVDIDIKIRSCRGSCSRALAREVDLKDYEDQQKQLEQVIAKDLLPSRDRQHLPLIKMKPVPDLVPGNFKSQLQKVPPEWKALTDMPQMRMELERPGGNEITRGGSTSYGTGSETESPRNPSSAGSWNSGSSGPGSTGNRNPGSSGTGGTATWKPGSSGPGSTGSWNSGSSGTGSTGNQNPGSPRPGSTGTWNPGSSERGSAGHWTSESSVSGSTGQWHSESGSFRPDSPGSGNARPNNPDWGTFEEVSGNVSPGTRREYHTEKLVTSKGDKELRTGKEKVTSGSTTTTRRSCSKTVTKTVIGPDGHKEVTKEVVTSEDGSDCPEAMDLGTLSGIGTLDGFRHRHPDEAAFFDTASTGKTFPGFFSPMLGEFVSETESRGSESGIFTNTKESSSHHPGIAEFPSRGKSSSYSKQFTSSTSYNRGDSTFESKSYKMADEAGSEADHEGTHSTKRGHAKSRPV
# T1 sequence (P02675 45-491 limits assumed): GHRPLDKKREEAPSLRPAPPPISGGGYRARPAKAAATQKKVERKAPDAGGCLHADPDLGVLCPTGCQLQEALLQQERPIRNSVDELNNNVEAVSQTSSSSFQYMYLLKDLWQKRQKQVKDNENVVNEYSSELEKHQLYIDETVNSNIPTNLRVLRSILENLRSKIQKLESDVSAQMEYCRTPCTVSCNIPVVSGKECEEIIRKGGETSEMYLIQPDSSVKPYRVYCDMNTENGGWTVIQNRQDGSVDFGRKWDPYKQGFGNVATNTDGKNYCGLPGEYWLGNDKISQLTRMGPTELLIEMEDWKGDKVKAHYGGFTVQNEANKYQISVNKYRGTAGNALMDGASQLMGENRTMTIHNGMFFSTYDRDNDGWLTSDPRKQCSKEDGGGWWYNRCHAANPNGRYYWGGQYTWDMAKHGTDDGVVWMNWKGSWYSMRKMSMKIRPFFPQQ
# T1 sequence (P02679 27-437 isoform P02679-2 limits assumed): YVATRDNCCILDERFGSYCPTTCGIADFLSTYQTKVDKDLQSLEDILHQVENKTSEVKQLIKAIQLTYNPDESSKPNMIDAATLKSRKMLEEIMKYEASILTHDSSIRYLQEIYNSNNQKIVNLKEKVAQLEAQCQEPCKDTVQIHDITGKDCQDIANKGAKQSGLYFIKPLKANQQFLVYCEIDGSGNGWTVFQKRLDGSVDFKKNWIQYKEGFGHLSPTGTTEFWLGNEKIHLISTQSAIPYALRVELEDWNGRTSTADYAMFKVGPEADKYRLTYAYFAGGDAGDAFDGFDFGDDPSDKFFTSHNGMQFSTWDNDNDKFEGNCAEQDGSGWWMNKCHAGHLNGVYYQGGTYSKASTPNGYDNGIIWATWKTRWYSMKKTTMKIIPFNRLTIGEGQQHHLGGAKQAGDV
# [3] = biological target: T2, fibrinogen αC domains (Homo sapiens, UniProt P02671); details: Tsurupa and Medved 2001; cited from earlier work
# T2 sequence (P02671 240-629 limits assumed): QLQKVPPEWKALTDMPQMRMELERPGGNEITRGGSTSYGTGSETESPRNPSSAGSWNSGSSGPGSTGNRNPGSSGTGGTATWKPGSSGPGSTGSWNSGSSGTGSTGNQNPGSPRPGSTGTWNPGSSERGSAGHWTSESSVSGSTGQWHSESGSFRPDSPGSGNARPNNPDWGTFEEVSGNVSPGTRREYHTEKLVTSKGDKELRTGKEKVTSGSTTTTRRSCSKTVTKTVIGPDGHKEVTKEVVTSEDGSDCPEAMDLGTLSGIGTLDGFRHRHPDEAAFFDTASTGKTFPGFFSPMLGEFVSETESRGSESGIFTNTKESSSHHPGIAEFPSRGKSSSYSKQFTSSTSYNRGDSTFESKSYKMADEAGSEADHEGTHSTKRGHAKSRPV
# [4] = tested on: occluded femoral artery; details: tPA infusion with transcutaneous ultrasound; cited from earlier work
Percent Starting Activity [1],Kd [2],Substance,Kd [3],decrease in time for recanalization [4]
4.7 ± 2.9%,9.52 nM,tPA(P): Human recombinant tPA (Activase®) irreversibly inhibited with D-phe-L-pro-L-arg-chloromethyl ketone (PPACK),,
,,"tPA: Recombinant tissue-plasminogen activator (Activase®, Genentech Inc.), used as the thrombolytic agent [reference compound]",33 ± 5 nM,80%
